From patent US20120135089A1, “E3 LIGASE INHIBITORS” (priority 2009, published 2012) come the findings set out here.

The subject of test [1] is Mdm2-ubiquitin conjugates. Nature of the test: cell-based Mdm2 ubiquitination assay (HA-ubiquitin immunoprecipitation). On the set-up: species or system human. The conditions noted are these: Mdm2-luciferase cells, with 10 μM MG132. The procedure:
To obtain the results shown in FIG. 4A, Mdm2-luciferase cells were transfected with ubiquitin-HA and treated 8 hours later with 10 μg/ml (28 μM) MEL23, 10 μg/ml (31 μM) MEL24, or a DMSO control. After 16 hours, cells were additionally treated with 10 μM MG132 or a DMSO control. After 3 hours, cells were lysed and immunoprecipitated for 3 hours with anti-HA affinity matrix. Total lysates and immunoprecipitated samples were analyzed by Western blotting using anti-Mdm2 antibody. NT indicates a no treatment control. […] After 8 hours, cells were treated with 10 μg/ml (28 μM) MEL23, 10 μg/ml (31 μM) MEL24, or a DMSO control. After 16 hours, cells were additionally treated with 10 μM MG132 or a DMSO control. After 3 hours cells were lysed and analyzed by Western blotting using anti-p53 antibody. […]
The Mdm2-luciferase cell line was transfected with HA-ubiquitin and pre-treated with 10 μg/ml MEL23 or MEL24, followed by 10 μM MG132. […] Cells lysates were immunoprecipitated with an anti-HA antibody and analyzed by Western blotting. […]
Briefly, Mdm2-luciferase cells were transfected with HA-ubiquitin. […] Input lysates and immunoprecipitated samples were analyzed by Western blotting using anti-Mdm2 antibody.
Briefly, Mdm2-luciferase cells were transfected with HA-ubiquitin. […] Input lysates and immunoprecipitated samples were analyzed by Western blotting using anti-Mdm2 antibody. […]

The test system of a further test is p53 ubiquitination. As to the kind of experiment: cell-based p53 ubiquitination assay in H1299 cells. Further details: species or system human. The settings on record: H1299 transfected with p53, Mdm2, ubiquitin; 10 μg/ml pre-treatment, 10 μM MG132. The procedure: To obtain the results shown in FIG. 4A, Mdm2-luciferase cells were transfected with ubiquitin-HA and treated 8 hours later with 10 μg/ml (28 μM) MEL23, 10 μg/ml (31 μM) MEL24, or a DMSO control. After 16 hours, cells were additionally treated with 10 μM MG132 or a DMSO control. After 3 hours, cells were lysed and immunoprecipitated for 3 hours with anti-HA affinity matrix. Total lysates and immunoprecipitated samples were analyzed by Western blotting using anti-Mdm2 antibody. NT indicates a no treatment control. […] After 8 hours, cells were treated with 10 μg/ml (28 μM) MEL23, 10 μg/ml (31 μM) MEL24, or a DMSO control. After 16 hours, cells were additionally treated with 10 μM MG132 or a DMSO control. After 3 hours cells were lysed and analyzed by Western blotting using anti-p53 antibody. “p53-Ub” indicates the slower migrating species of the protein that are the ubiquitin-conjugated forms.
To test the effects of the MEL compounds on p53 ubiquitination, H1299 cells were transfected with plasmids expressing p53, Mdm2, and ubiquitin and pre-treated with 10 μg/ml MEL23 or MEL24, followed by treatment with 10 μM MG132. Ubiquitination of p53 was analyzed by Western blotting. […] In fact, the half-life of p53 increased from an hour to greater than 6 hours with 5 μg/ml MEL23 treatment (FIG. 32). Thus, treatment with MEL23 and MEL24 inhibits ubiquitin conjugation to Mdm2 and p53.

Test [2] deals with T1, Roc1/Cul1 E3 RING domain ligase (Homo sapiens, UniProt P62877+Q13616).
T1 construct: gift from Zhen-Qiang Pan, Mount Sinai School of Medicine
T1 sequence (P62877 whole entry, the tested form may be a part): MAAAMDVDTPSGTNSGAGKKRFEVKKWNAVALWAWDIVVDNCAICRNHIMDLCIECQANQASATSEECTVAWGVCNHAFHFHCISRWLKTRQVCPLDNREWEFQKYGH
T1 sequence (Q13616 whole entry, the tested form may be a part): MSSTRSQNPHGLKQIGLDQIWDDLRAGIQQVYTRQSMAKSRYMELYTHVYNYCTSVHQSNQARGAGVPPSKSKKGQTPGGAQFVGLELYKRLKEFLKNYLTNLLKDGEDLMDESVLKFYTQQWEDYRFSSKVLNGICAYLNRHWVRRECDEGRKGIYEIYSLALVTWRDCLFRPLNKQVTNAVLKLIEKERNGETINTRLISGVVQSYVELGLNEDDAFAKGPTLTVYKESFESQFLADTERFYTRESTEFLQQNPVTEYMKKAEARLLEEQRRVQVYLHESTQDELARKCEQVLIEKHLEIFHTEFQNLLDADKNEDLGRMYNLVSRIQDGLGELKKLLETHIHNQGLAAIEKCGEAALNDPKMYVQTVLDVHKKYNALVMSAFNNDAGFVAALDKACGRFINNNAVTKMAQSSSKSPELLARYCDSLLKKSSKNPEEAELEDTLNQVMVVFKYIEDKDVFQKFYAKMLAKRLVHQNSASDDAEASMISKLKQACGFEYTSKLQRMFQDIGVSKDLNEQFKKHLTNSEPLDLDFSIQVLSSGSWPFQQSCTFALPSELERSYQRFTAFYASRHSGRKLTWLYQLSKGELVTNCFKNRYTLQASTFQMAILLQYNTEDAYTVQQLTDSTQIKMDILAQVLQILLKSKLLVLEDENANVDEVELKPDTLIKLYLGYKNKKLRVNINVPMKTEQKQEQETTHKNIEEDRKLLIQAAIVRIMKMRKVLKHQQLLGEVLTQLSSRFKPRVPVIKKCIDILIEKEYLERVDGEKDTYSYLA
As to the kind of experiment: in vitro Roc1/Cul1 E3 ligase ubiquitination assay. The class given is biochemical. How it is done: These assays were performed with 100 ng of full-length Flag-Mdm2 or 200 ng of Flag-Mdm2/HA-MdmX complexes (100 ng of each protein as each are present in a 1:1 ratio, when purified), ^32P-labeled ubiquitin, UbCH5c, and E1. Following a 30-minute incubation at 37° C., reactions were terminated and resolved on a SDS-PAGE gel followed by autoradiography. PC indicates positive control, and NC indicates negative control with UbCH5C eliminated from the reaction. The gels were quantified by phosphoimaging using ImageQuant software (GE Healthcare Bio-Sciences Corp., Piscataway, N.J.). […] Reactions were performed as in FIG. 11A except 500 ng GST-Mdm2 (residues 400-491) and GST-MdmX (residues 400-490) were used for ubiquitin polymerization. […] Reactions were performed as in FIG. 11A except with 3 μg of the Roc1/Cul1 ligase complex. Ubiquitination activity of the complex was tested in the presence of increasing concentrations of MEL23 and MEL24.
Ubiquitination assays in the presence of increasing concentrations of MEL compounds were performed with 1.5 μg of the Roc1-Cul1 ligase complex, ^32P-labeled ubiquitin, UbCH5c, and E1. Following 30 min incubation at 37° C., reactions were terminated and resolved on a SDS-PAGE gel (FIG. 31A) followed by autoradiography and quantitation (FIG. 31B). […]

Molecules are shown by their SMILES.

With `CCCCn1c(=O)[nH]c(O)c(C2NCCc3c2[nH]c2ccccc32)c1=O` (stereo not drawn) [MEL23], the “Mdm2 ubiquitination in cells (Mdm2-ubiquitin conjugates)” value in test [1] is “significantly less Mdm2-ubiquitin conjugates were immunoprecipitated”. Besides, the “p53 ubiquitination in cells” value in the test on p53 ubiquitination is on record as “eliminated by pre-treatment”. For the same molecule, in test [2], the “Roc1/Cul1 E3 ligase activity in vitro” value is “no inhibition”.

In the case of `Cn1c(O)c(C2NCCc3c2[nH]c2ccccc32)c(=O)n(C)c1=O` (stereo not drawn) [MEL24], the “Mdm2 ubiquitination in cells (Mdm2-ubiquitin conjugates)” value in test [1] is on record as “significantly less Mdm2-ubiquitin conjugates were immunoprecipitated”. Further, in the test on p53 ubiquitination, the “p53 ubiquitination in cells” value was “eliminated by pre-treatment”. In test [2], the “Roc1/Cul1 E3 ligase activity in vitro” value is listed as “no inhibition”.
